# In the supplement of paper PMC10307832:
# How the values were obtained:
# Assay in all cases: relative viability (nuclei count vs DMSO), 5 days (fraction); higher = more cells survive
# Metformin + OSI-027 = compound: CN(C)C(=N)NC(=N)N [Metformin] + COc1cccc2cc(-c3nc([C@H]4CC[C@H](C(=O)O)CC4)n4ncnc(N)c34)[nH]c12 [OSI-027] (partner 0.5 µM)
# Summary of the method: (§1)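 Lung cancer cell lines were pin-tool dosed in 1536-well plates on the day after seeding, with either a lone drug or a fixed anchor-drug dose plus five library-drug doses (not always all listed) in √10 steps. Nuclei were counted on 4× images after 5 days. Relative viability is the ratio of treated-well to vehicle-well nuclei counts, with each value a median of duplicate plates.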
# Apatinib + Dasatinib = compound: N#CC1(c2ccc(NC(=O)c3cccnc3NCc3ccncc3)cc2)CCCC1 [Apatinib] + Cc1nc(Nc2ncc(C(=O)Nc3c(C)cccc3Cl)s2)cc(N2CCN(CCO)CC2)n1 [Dasatinib] (partner 0.075 µM)
# Summary of the method: as §1
# Metformin + Pictilisib = compound: CN(C)C(=N)NC(=N)N [Metformin] + CS(=O)(=O)N1CCN(Cc2cc3nc(-c4cccc5[nH]ncc45)nc(N4CCOCC4)c3s2)CC1 [Pictilisib] (partner 1 µM)
# Summary of the method: as §1
# Apatinib + Lapatinib = compound: N#CC1(c2ccc(NC(=O)c3cccnc3NCc3ccncc3)cc2)CCCC1 [Apatinib] + CS(=O)(=O)CCNCc1ccc(-c2ccc3ncnc(Nc4ccc(OCc5cccc(F)c5)c(Cl)c4)c3c2)o1 [Lapatinib] (partner 2 µM)
# Summary of the method: as §1
Cell Line,relative viability (Metformin + OSI-027; first compound 10 µM),relative viability (Metformin + OSI-027; first compound 31.62 µM),relative viability (Metformin + OSI-027; first compound 100 µM),relative viability (Metformin + OSI-027; first compound 316.23 µM),relative viability (Metformin + OSI-027; first compound 1000 µM),relative viability (Apatinib + Dasatinib; first compound 0.08 µM),relative viability (Apatinib + Dasatinib; first compound 0.253 µM),relative viability (Apatinib + Dasatinib; first compound 0.8 µM),relative viability (Apatinib + Dasatinib; first compound 2.53 µM),relative viability (Apatinib + Dasatinib; first compound 8 µM),relative viability (Metformin + Pictilisib; first compound 10 µM),relative viability (Metformin + Pictilisib; first compound 31.62 µM),relative viability (Metformin + Pictilisib; first compound 100 µM),relative viability (Metformin + Pictilisib; first compound 316.23 µM),relative viability (Metformin + Pictilisib; first compound 1000 µM),relative viability (Apatinib + Lapatinib; first compound 0.08 µM),relative viability (Apatinib + Lapatinib; first compound 0.253 µM),relative viability (Apatinib + Lapatinib; first compound 0.8 µM),relative viability (Apatinib + Lapatinib; first compound 2.53 µM),relative viability (Apatinib + Lapatinib; first compound 8 µM)
NCI-H1623,0.449,0.469,0.463,0.539,0.478,0.438,0.598,0.493,0.545,0.595,–,–,–,–,–,–,–,–,–,–
HCC-15,–,0.812,0.655,0.586,0.678,0.686,0.626,0.605,0.574,0.63,0.625,0.789,0.746,0.75,0.823,0.928,0.859,0.808,0.742,0.827
NCI-H441,–,0.665,0.519,0.393,0.46,0.646,0.486,0.511,0.566,0.449,0.527,–,0.499,0.394,0.589,–,–,–,–,–
NCI-H1993,0.587,0.603,0.554,0.507,0.514,0.63,0.663,0.558,0.538,0.503,0.672,0.783,0.778,0.699,0.747,0.824,0.749,0.805,0.866,0.798
NCI-H1915,–,0.666,0.651,0.56,0.665,0.323,0.32,0.293,0.321,0.36,–,1.08,0.95,0.919,0.933,1.04,0.94,0.892,0.802,0.935
ABC-1,0.661,0.529,0.466,0.266,0.22,–,0.631,0.492,0.509,0.484,–,0.76,0.787,0.643,0.265,1.03,1.45,1.42,1.14,0.993
NCI-H2087,–,0.753,0.73,0.536,0.482,0.929,0.747,0.763,0.685,0.524,0.909,1.01,0.772,0.782,0.957,0.877,0.982,1.09,0.793,0.891
NCI-H1755,0.614,0.729,0.701,0.636,0.579,0.524,0.484,0.451,0.394,0.399,0.366,0.402,0.471,0.412,0.336,1.03,1,1.04,1.08,0.722
HCC-366,0.757,0.967,0.991,0.808,1.28,0.661,0.559,0.565,0.647,0.601,0.141,0.213,0.138,0.115,0.185,1.07,1.14,0.98,0.979,1.02
NCI-H2170,0.566,0.52,0.683,0.673,0.711,0.551,0.447,0.489,0.464,0.572,0.3,0.283,0.301,0.31,0.264,0.307,0.241,0.466,0.271,0.281
NCI-H1792,–,0.91,0.909,0.697,0.678,0.965,0.789,0.763,0.573,0.512,–,0.398,0.393,0.47,0.428,0.873,0.877,0.855,0.798,0.844
SW 1573,0.68,0.756,0.611,0.4,0.419,0.454,0.624,0.393,0.351,0.458,0.534,0.42,0.521,0.498,0.497,0.958,1.09,1.15,1.09,1.02
HCC-827,–,0.714,0.704,0.586,0.73,0.287,0.326,0.273,0.236,0.231,–,0.914,1.13,0.996,1.15,0.197,0.177,0.165,0.19,0.196
NCI-H358,0.737,0.879,0.801,0.716,0.749,0.188,0.151,0.139,0.206,0.186,0.356,0.424,0.44,0.332,0.378,0.47,0.397,0.474,0.439,0.403
Calu-6,–,–,–,–,–,–,–,–,–,–,0.733,0.886,0.769,0.531,0.413,1.13,1.1,0.988,0.919,0.789
LOU-NH91,0.711,0.71,0.644,0.775,0.767,0.505,0.552,0.498,0.528,0.471,0.555,0.469,0.53,0.496,0.549,0.727,0.726,0.754,0.712,0.77
CAL-12T,0.678,0.94,0.581,0.39,0.605,0.523,0.602,0.38,0.262,0.234,0.423,0.511,0.527,0.415,0.518,0.736,0.608,0.778,0.575,0.589
IA-LM,–,–,–,–,–,–,–,–,–,–,0.337,0.462,0.41,0.38,0.303,0.814,0.677,0.772,0.6,0.305
NCI-H1703,–,–,–,–,–,–,–,–,–,–,0.291,0.309,0.29,0.291,0.226,1.01,0.685,0.291,0.228,0.276
